On the set-up of data set [1]: method as in PMID 4650364. The note with it: urine at 8 h after a single oral dose of 10 mg/kg BW TMP; cited from earlier work.
On the set-up of data set [2]: method as in PMID 26212255. Particulars: cited from earlier work.
Data set [3] in a line: in vivo. The note with it: for Radioactive compound detected/identified in plasma / Concentration in plasma: single oral ^3H-DVD 10 mg/kg BW; for Concentration in plasma: pigs. The source says: (§1) Four healthy castrated male pigs (Landrace/Doric Cross, 60-d-old, 30 ± 2 kg) were supplied by the China Breeding Pig Testing Center of Huazhong Agricultural University (Wuhan, China). Six healthy Cobb 500 broiler chickens (three female and three male, 40-d-old, 2.5 ± 0.1 kg) were purchased from Wuhan Chia Tai chicken farm (Wuhan, China). All animals were maintained under standard environmental conditions by using normal husbandry practices and were acclimatized for 1 week. The animals were fed a commercial standard diet and water ad libitum, but were fasted overnight before dose administration and up to 4 h after dose administration. All animal care and experimental protocols were conducted in accordance with the Guide for the Care and Use of Laboratory Animals of Hubei Provincial Laboratory Animal Public Service Center (permit number SYXK 2013-0044) and approved by the Ethics Committee of Huazhong Agricultural University.
(§2) Pigs (n = 4) and chickens (n = 6) were weighed individually and given a single dose of 10 mg/kg BW ^3H-DVD with a specific activity of 0.23 Ci/g. The ^3H-DVD solution was prepared by accurately mixing ^3H-DVD and non-labeled DVD at a mass ratio of 1:96 and diluting it with 0.5% methylcellulose to make a homogeneous suspension with a concentration of 25 mg/ml. The suspension was administered by gastric gavage using a soft stomach tube connected to an injection syringe. About 1.5 ml of blood was collected into heparinized tubes from the anterior venae cavae of pig and the wing veins of chicken at different time points. For pigs, blood was collected before administration and 0.17, 0.33, 0.5, 0.67, 1, 1.5, 2, 4, 6, 8, 12, 24, 48, 72, 168, and 336 h after oral treatment. For chickens, blood was collected before administration and 0.25, 0.5, 1, 1.5, 2, 4, 6, 8, 12, 24, 36, 48, 72, 168, and 336 h after oral dosing. Plasma samples were collected after centrifugation at 4°C and 2,254 × g for 10 min and were stored at −20°C until analysis.
(§3) Plasma samples were completely thawed at room temperature. Each sample was divided into two parts, one was used for the assay of total radioactivity, and the other was subjected to a MCX Solid Phase Extraction (SPE) procedure for the qualitative and quantitative analysis of DVD-related metabolites.
(§4) The total radioactivity assay was conducted in accordance with a previous study with a few modifications ([20]). Briefly, 50 μl of plasma was mixed with 50 μl of 0.1 mol/L EDTA-Na and 50 μl of 30% H2O2 at 50°C in a shaking water bath for 2 h for bleaching. The obtained transparent liquid was mixed with 10 ml of Ultima Gold™ scintillation fluid and was analyzed directly using a Packard Tri-Carb 2900 TR liquid scintillation counter (PerkinElmer Life and Analytical Sciences, Waltham, MA, USA). The scintillation counter data were automatically corrected for counting efficiency using an instrument-stored quench curve that was drawn with a series of sealed quenched ^14C standards. All the samples were analyzed in duplicate and the actual radioactivity of each sample was calculated by subtracting the […].
(§5) A 500 μl plasma sample was adjusted to pH 2.8–3.2 with 1 ml of 1 M hydrochloric acid (HCl), and a […] aliquot of the mixture was placed in a MCX cartridge preconditioned with 3 ml of methanol followed by 3 ml of 0.1 mol/L HCl water. The cartridge was washed with 3 ml of 0.1 mol/L HCl water and then eluted with 5 ml NH4OH/methanol (8:92, v:v). The effluent was concentrated to dryness under a stream of nitrogen at 40°C. The residue was reconstituted in 250 μl of methanol-water (1:9, v:v) before injection onto the LC-v.ARC/MS-IT-TOF system for metabolite identification and quantitation.
(§6) Measurement of total radioactivity in each sample was conducted using a Packard Tri-Carb 2900 TR liquid scintillation counter. The detection time was 10 min for two cycles.

For data set [4] the following is noted: chickens, cited from earlier work.
Data set [5] relates to tester strain TA100 and TA98. Details: method as in PMID 1922158, PMID 26397222. Particulars: cited from earlier work.
For data set [6] the following is noted: pigs, cited from earlier work.
A short description of data set [7]: in vivo.
Text: as §1, §2, §3, §4, §5, §6

Details of data set [8]: method as in PMID 22161732. Particulars: pig liver microsomes incubated with DVD; cited from earlier work.
The mark [9] stands for this setting: male, Landrace/Doric Cross, pig, in vivo, po, 10 mg/kg.
Setting [10] is: pig plasma, oral ^3H-DVD 10 mg/kg BW.
Where [11] appears, read: HPLC-UV method, previous studies.
[12] abbreviates: both, Cobb 500 broiler, in vivo, po, 10 mg/kg.

“Also recorded” adds a separate entry of the source. Where two headings read alike, the source gives them in different places. Bounds are passed on as bounds.

One may read the AUC(0-inf) as total exposure, with the tail of the curve extrapolated. Higher therefore signals high exposure. As a reminder, the Cmax is the maximum level reached in the sampled fluid or tissue. A word on the MRT inf: it is a mean duration of stay, worked out from the concentration-time curve. By MRT last is commonly meant the average time that molecules of a dose stay in the body. As a reminder, the half-life is the time in which the quantity being followed falls by half. Higher therefore signals slow loss. By Tmax is commonly meant the time from dosing to the highest level.

Consider `COc1cc(Cc2cnc(N)nc2N)cc(O)c1OC` [3′-demethylated TMP], for which the Content in urine in data set [1] was greater than 30%.

`COc1cc(Cc2cnc(N)nc2N)cc(OC)c1O` [4′-demethylated TMP]: in data set [1], the Content in urine is 1%.

Regarding `COc1ccc(Cc2cnc(N)nc2N)cc1OC` [D0, 5-[(3′,4′-dimethoxyphenyl)methyl]-2,4-pyrimidinediamine, reference compound], the Withdrawal period in data set [2] (kidney) is 6.74 days; in data set [2] (liver) it was 4.94 days; in data set [2] (muscle) it was 4.77 days; in data set [2] (skin with fat), 4.58 days. For the same molecule, the “Tmax (time to Cmax from time zero)” value in data set [3] (male, Landrace/Doric Cross, pig, in vivo) was 2.0 ± 0.0 h; in data set [3] (setting [10]), 2 h; in data set [7] (both, Cobb 500 broiler, chicken, in vivo), 2.0 ± 0.0 h; in data set [7] (chicken plasma, oral ^3H-DVD 10 mg/kg BW) it was 2 h. The concentration at 168 h is 60 ± 20 ng/mL in data set [3] (male, Landrace/Doric Cross, pig, in vivo, 10 mg/kg BW) and 90 ± 30 ng/mL in data set [7] (both, Cobb 500 broiler, chicken, in vivo, 10 mg/kg BW). For the same molecule, the AUC0−∞ stood at 33900 ng·h/mL in data set [3] (male, Landrace/Doric Cross, pig, in vivo, po) and 55300 ng·h/mL in data set [7] (both, Cobb 500 broiler, chicken, in vivo, po). Moreover, the AUC(0-inf) was determined as 33900 ± 5810 ng·h/mL in data set [3] (setting [9]) and 55300 ± 11500 ng·h/mL in data set [7] (setting [12]). The “ClB (total body clearance)” value came to 5 ± 0.83 mL/min/kg in data set [3] (setting [9]) and 3.17 ± 0.67 mL/min/kg in data set [7] (setting [12]). Further, the Cmax was 490 ± 20 ng/mL in data set [3] (setting [9]), 1450 ng/mL in data set [4] (setting [11]), 430 ng/mL in data set [6] (setting [11]) and 1550 ± 390 ng/mL in data set [7] (setting [12]). The MRT inf in data set [3] (setting [9]) came to 93 ± 12.6 h; in data set [7] (setting [12]) it was 66.2 ± 10.7 h. The MRT last in data set [3] (setting [9]) was found to be 57.3 ± 1.72 h; in data set [7] (setting [12]) it was 43.7 ± 2.42 h. The results for the half-life in data set [3] (setting [9]) and in data set [7] (setting [12]) were 66.4 ± 10.1 h and 48.3 ± 12.8 h, respectively. Further, the “Radioactive compound detected/identified in plasma” value is “identified; also recorded: detected” in data set [3] (pig plasma) and “identified; also recorded: detected” in data set [7] (chicken plasma, single oral ^3H-DVD 10 mg/kg BW). Moreover, the “Time at which DVD was still detected in plasma” value in data set [3] (pig plasma, this study) was 168 h; in data set [4] (HPLC-UV, ref Li et al. 15), 24 h; in data set [6] (HPLC-UV, ref Li et al. 15), 6 h; in data set [7] (chicken plasma, this study) it was 168 h. Moreover, the Tmax in data set [4] (setting [11]) is listed as 3.25 h; in data set [6] (setting [11]) it was 1.04 h. Besides, the Mutagenicity result is “mutagenic” in data set [5] (strain TA100 after metabolic activation with hamster S9 mix); “not mutagenic” in data set [5] (tester strain TA100 and TA98, presence and absence of rat S9 mix).

For `COc1ccc(Cc2cnc(N)nc2N)cc1O` [D1, 3′-desmethyl-DVD], the “AUC0−∞” value in data set [3] (setting [10]) came to 3720 ± 620 ng·h/mL. Besides, the “ClB (total body clearance)” value in data set [3] (setting [10]) is 46 ± 7.67 mL/min/kg. Also, the “Cmax (maximum drug concentration)” value in data set [3] (setting [10]) is 240 ± 50 ng/mL. The “MRT0−∞” value in data set [3] (setting [10]) is 22.93 ± 1.28 h. Further, the MRTLast in data set [3] (setting [10]) was determined as 15.23 ± 0.25 h. Also, the “Tmax (time to Cmax from time zero)” value in data set [3] (setting [10]) is recorded as 2 h. In addition, the “Vd (apparent volume of distribution)” value in data set [3] (setting [10]) was determined as 70.38 ± 6.67 L/kg. The “t1/2 (elimination half-life)” value in data set [3] (pig plasma, oral ^3H-DVD 10 mg/kg BW, non-compartmental) is recorded as 17.86 ± 1.30 h. Also, the “Radioactive compound detected/identified in plasma” value in data set [3] (pig plasma) was “identified; also recorded: detected”. Moreover, the Concentration in plasma was 120 ± 30 ng/mL in data set [3] (0.5 h, ND = below the LOQ); 150 ± 20 ng/mL in data set [3] (0.67 h); 160 ± 40 ng/mL in data set [3] (1 h); 190 ± 30 ng/mL in data set [3] (1.5 h); 240 ± 60 ng/mL in data set [3] (2 h); 160 ± 20 ng/mL in data set [3] (4 h). The Concentration in plasma in data set [3] (6 h) worked out at 100 ± 20 ng/mL; in data set [3] (8 h), 80 ± 10 ng/mL; in data set [3] (12 h), 80 ± 10 ng/mL; in data set [3] (24 h) it was 60 ± 10 ng/mL; in data set [3] (48 h) it was 20 ± 10 ng/mL. In addition, the “Metabolite detected in vitro” value in data set [8] is reported as “detected”.
